# According to patent US20170320870A1 (Medical Research Council Technology, priority 2009, published 2017):
# Target: T1, LRRK2 wild type (recombinant human, catalytic domain amino acids 970-2527, GST-tagged) (Homo sapiens, UniProt Q5S007)
# T1 construct: The wild type used was recombinant human, catalytic domain (amino acids 970-2527) GST-tagged, expressed in insect cells; GST; purchased Invitrogen Corporation PV4873; host or cells: insect cells
# Assay: LRRK2 wild type protein kinase assay ([γ-33P] ATP, peptide substrate […]), IC50
# Type: biochemical
# Details: LRRK2 (variant not given); read-out: Potency score, LRRK2 IC50
# Description: All LRRK2 protein kinases were of human origin and were sourced from Invitrogen Corporation (Carlsbad, Calif. 92008 USA) unless otherwise indicated. The active mutant used was recombinant human, catalytic domain (amino acids 970-2527) containing a G2019S mutation, GST-tagged, expressed in insect cells (Invitrogen Cat#PV4881). The wild type used was recombinant human, catalytic domain (amino acids 970-2527) GST-tagged, expressed in insect cells (Invitrogen Cat#PV4873). The kinase dead mutant used was recombinant human, catalytic domain (amino acids 970-2527) containing a D1994A mutation, GST-tagged, expressed in insect cells (Invitrogen Cat#PM4041AE). No special measures were taken to activate any of the kinases.
# All assays were carried out at room temperature (˜21° C.) and were linear with respect to time and enzyme concentration under the conditions used. Assays were performed for 180 min in a 96 well format. LRRK2 was present at a concentration of approximately 5 nM. The enzyme was diluted and assayed in 50 mM Tris-HCl pH7.5, 0.1 mM EGTA, 1 mM DTT and 10 mM MgCl2. The concentration of magnesium chloride in the assay was 10 mM. The [γ-33P] […] The peptide substrate in the assay was […] at 100 μM.
# The assays were initiated with Mg/ATP and stopped by the addition of 25 μl/well 50% orthophosphoric acid. Reactions were harvested onto Whatman P81 Unifilter Plates (Fisher Scientific. Loughborough, LE115RG, UK. Cat# FDU-105-020U) using a Tomtec harvester. (Tomtec Hamden, Conn. 06514. USA) Plates were counted using a Perkin Elmer Top Count NX7. (Perkin Elmer, Shelton Conn. 06484-4794 USA)
# IC50 values of inhibitors were determined after carrying out assays at 10 different concentrations of each compound in duplicate.
# T1 sequence (Q5S007 970-2527): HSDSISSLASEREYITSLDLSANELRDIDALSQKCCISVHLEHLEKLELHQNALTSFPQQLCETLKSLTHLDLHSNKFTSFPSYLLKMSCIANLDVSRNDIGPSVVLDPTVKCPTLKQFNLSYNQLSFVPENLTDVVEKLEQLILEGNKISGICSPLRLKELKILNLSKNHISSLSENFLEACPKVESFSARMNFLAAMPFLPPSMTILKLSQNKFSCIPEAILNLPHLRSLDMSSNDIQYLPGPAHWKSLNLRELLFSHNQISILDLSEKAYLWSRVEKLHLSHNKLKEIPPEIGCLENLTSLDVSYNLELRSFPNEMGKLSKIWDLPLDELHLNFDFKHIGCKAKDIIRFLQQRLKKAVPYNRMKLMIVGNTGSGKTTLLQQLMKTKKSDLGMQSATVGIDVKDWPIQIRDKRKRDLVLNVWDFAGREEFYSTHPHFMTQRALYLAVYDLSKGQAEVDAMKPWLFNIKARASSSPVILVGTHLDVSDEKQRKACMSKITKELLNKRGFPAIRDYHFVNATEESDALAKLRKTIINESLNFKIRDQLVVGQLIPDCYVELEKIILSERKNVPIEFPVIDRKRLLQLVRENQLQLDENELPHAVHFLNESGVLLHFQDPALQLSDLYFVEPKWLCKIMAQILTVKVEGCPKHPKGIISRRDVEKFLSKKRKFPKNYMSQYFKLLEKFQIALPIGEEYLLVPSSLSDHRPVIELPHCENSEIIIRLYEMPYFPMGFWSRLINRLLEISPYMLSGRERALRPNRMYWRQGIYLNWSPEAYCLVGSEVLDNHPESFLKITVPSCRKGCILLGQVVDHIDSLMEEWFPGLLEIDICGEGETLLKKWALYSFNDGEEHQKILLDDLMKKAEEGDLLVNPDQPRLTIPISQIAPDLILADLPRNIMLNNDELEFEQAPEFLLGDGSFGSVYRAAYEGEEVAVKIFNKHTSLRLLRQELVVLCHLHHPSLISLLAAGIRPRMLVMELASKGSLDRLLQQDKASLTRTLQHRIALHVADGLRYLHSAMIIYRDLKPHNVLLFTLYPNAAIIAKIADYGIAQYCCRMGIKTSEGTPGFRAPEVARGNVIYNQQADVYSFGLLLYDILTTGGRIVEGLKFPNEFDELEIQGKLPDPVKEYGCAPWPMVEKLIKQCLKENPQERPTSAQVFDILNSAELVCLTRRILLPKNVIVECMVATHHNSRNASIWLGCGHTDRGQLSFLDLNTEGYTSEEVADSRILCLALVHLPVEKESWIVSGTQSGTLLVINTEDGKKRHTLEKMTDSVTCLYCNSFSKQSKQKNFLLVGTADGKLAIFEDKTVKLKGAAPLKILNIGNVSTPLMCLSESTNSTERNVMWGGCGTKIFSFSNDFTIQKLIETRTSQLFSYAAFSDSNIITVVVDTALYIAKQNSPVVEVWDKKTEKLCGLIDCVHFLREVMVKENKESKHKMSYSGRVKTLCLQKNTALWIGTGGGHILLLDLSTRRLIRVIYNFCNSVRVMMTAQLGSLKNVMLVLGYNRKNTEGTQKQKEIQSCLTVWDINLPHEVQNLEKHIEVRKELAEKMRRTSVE
row,SMILES,IC50 [nM]
1,"Cc1nc2cc(Nc3nccc4[nH]nc(C)c34)ccc2s1 [Example 328, (2-Methyl-benzothiazol-5-yl)-(3-methyl-1H-pyrazolo[4,3-c]pyridin-4-yl)-amine]",1000 to 10000
2,"Cc1n[nH]c2ccnc(-c3cccc(NS(C)(=O)=O)c3)c12 [Example 52, N-[3-(3-Methyl-1H-pyrazolo[4,3-c]pyridin-4-yl)-phenyl]-methane-sulfonamide]",1000 to 10000
3,"Cc1n[nH]c2ccnc(Nc3ccc(N4CCN(C)CC4)cc3)c12 [Example 86, [4-(4-Methyl-piperazin-1-yl)-phenyl]-(3-methyl-1H-pyrazolo[4,3-c]pyridin-4-yl)-amine]",1000 to 10000
4,"Cc1n[nH]c2ccnc(NC3CC3)c12 [Example 11, Cyclopropyl-(3-methyl-1H-pyrazolo[4,3-c]pyridin-4-yl)-amine]",1000 to 10000
5,"Cc1n[nH]c2ccnc(NCC3CCCCC3)c12 [Example 325, Cyclohexylmethyl-(3-methyl-1H-pyrazolo[4,3-c]pyridin-4-yl)-amine]",1000 to 10000
6,"CN(C)C(=O)c1ccc(-c2n[nH]c3ccnc(NC4CCCCC4)c23)cc1 [Example 165, 4-(4-Cyclohexylamino-1H-pyrazolo[4,3-c]pyridin-3-yl)-N,N-dimethyl-benzamide]",1000 to 10000
7,"Cc1cccc(Nc2nccc3[nH]nc(C)c23)c1 [Example 319, (3-Methyl-phenyl)-(3-methyl-1H-pyrazolo[4,3-c]pyridin-4-yl)-amine]",100 to 1000
8,"Cc1n[nH]c2ccnc(NC(C)C(C)C)c12 (stereo not shown) [Example 27, (1,2-Dimethyl-propyl)-(3-methyl-1H-pyrazolo[4,3-c]pyridin-4-yl)-amine]",100 to 1000
9,"CCCNc1nccc2[nH]nc(C)c12 [Example 16, (3-Methyl-1H-pyrazolo[4,3-c]pyridin-4-yl)-propyl-amine]",100 to 1000
10,"Cc1n[nH]c2ccnc(NC3CCCCCC3)c12 [Example 33, Cycloheptyl-(3-methyl-1H-pyrazolo[4,3-c]pyridin-4-yl)-amine]",100 to 1000
11,"CN1CCC(C(=O)Nc2ccc(CCc3n[nH]c4ccnc(NC5CCCCC5)c34)cc2)CC1 [Example 271, 1-Methyl-piperidine-4-carboxylic acid {4-[2-(4-cyclohexylamino-1H-pyrazolo[4,3-c]pyridin-3-yl)-ethyl]-phenyl}-amide]",100 to 1000
12,"Cc1n[nH]c2ccnc(O[C@@H](C)Cc3ccccc3)c12 [Example 300, 3-Methyl-4-((S)-1-methyl-2-phenyl-ethoxy)-1H-pyrazolo[4,3-c]pyridine]",100 to 1000
13,"Cc1n[nH]c2ccnc(N3CCc4ccccc4C3)c12 [Example 12, 2-(3-Methyl-1H-pyrazolo[4,3-c]pyridin-4-yl)-1,2,3,4-tetrahydro-isoquinoline]",1000 to 10000
14,"Cc1n[nH]c2ccnc(NC3CCCN(C)C3)c12 (stereo not shown) [Example 31, (1-Methyl-piperidin-3-yl)-(3-methyl-1H-pyrazolo[4,3-c]pyridin-4-yl)-amine]",1000 to 10000
15,"Cc1n[nH]c2ccnc(N[C@@H](C)C(C)C)c12 [Example 40, ((S)-1,2-Dimethyl-propyl)-(3-methyl-1H-pyrazolo[4,3-c]pyridin-4-yl)-amine]",100 to 1000
16,"Cc1n[nH]c2ccnc(NCCc3c[nH]c4ccccc34)c12 [Example 342, [2-(1H-Indol-3-yl)-ethyl]-(3-methyl-1H-pyrazolo[4,3-c]pyridin-4-yl)-amine]",1000 to 10000
17,"Cn1nccc1NC(=O)c1ccc(CCc2n[nH]c3ccnc(NC4CCCCC4)c23)cc1 [Example 252, 4-[2-(4-Cyclohexylamino-1H-pyrazolo[4,3-c]pyridin-3-yl)-ethyl]-N-(2-methyl-2H-pyrazol-3-yl)-benzamide]",100 to 1000
18,"CN1CCOc2cc(-c3n[nH]c4ccnc(NC5CCCCC5)c34)ccc21 [Example 161, Cyclohexyl-[3-(4-methyl-3,4-dihydro-2H-1,4-benzoxazin-7-yl)-1H-pyrazolo[4,3-c]pyridin-4-yl]-amine]",100 to 1000
19,"c1cc(CCc2n[nH]c3ccnc(NC4CCCCC4)c23)ccn1 [Example 218, Cyclohexyl-[3-(2-pyridin-4-yl-ethyl)-1H-pyrazolo[4,3-c]pyridin-4-yl]-amine]",100 to 1000
20,"Cc1n[nH]c2ccnc(-c3ccccc3F)c12 [Example 49, 4-(2-Fluoro-phenyl)-3-methyl-1H-pyrazolo[4,3-c]pyridine]",100 to 1000
21,"CC(=O)NCCNc1nccc2[nH]nc(C)c12 [Example 302, N-[2-(3-Methyl-1H-pyrazolo[4,3-c]pyridin-4-ylamino)-ethyl]-acetamide]",1000 to 10000
22,"Cc1n[nH]c2ccnc(OCC3CCCCC3)c12 [Example 278, 4-Cyclohexyl-methoxy-3-methyl-1H-pyrazolo[4,3-c] pyridine]",100 to 1000
23,"Cc1n[nH]c2ccnc(Nc3cnn(C)c3)c12 [Example 88, (3-Methyl-1H-pyrazolo[4,3-c]pyridin-4-yl)-(1-methyl-1H-pyrazol-4-yl)-amine]",100 to 1000
24,"Cn1cc(-c2n[nH]c3ccnc(NC4CCCCC4)c23)cn1 [Example 162, Cyclohexyl-[3-(1-methyl-1H-pyrazolo-4-yl)-1H-pyrazolo[4,3-c]pyridin-4-yl]-amine]",100 to 1000
25,"Cc1n[nH]c2ccnc(-c3cnn(C)c3)c12 [Example 47, 3-Methyl-4-(1-methyl-1H-pyrazol-4-yl)-1H-pyrazolo[4,3-c]pyridine]",1000 to 10000
26,"Cc1n[nH]c2ccnc(NCc3cccc(Cl)c3)c12 [Example 314, (3-Chloro-benzyl)-(3-methyl-1H-pyrazolo[4,3-c]pyridin-4-yl)-amine]",1000 to 10000

# Further lines, results first:
row,IC50 [nM],SMILES
1,< 100,"CC1CCCN(C(=O)CCc2n[nH]c3ccnc(NC4CCCCC4)c23)C1 (stereo not shown) [Example 199, 3-(4-Cyclohexylamino-1H-pyrazolo[4,3-c]pyridin-3-yl)-1-(3-methyl-piperidin-1-yl)-propan-1-one]"
2,< 100,"O=C(c1ccc(CCc2n[nH]c3ccnc(NC4CCCCC4)c23)cc1)N1CCOCC1 [Example 253, {4-[2-(4-Cyclohexylamino-1H-pyrazolo[4,3-c]pyridin-3-yl)-ethyl]-phenyl}-morpholin-4-yl-methanone]"
3,< 100,"COc1nccc2[nH]nc(/C=C/C(=O)N3CCC[C@@H](C)C3)c12 [Example 259, (E)-3-(4-Methoxy-1H-pyrazolo[4,3-c]pyridin-3-yl)-1-((R)-3-methyl-piperidin-1-yl)-propenone]"
4,100 to 1000,"Cc1n[nH]c2ccnc(Nc3cccc(C(F)(F)F)c3)c12 [Example 66, (3-Methyl-1H-pyrazolo[4,3-c]pyridin-4-yl)-(3-trifluoromethyl-phenyl)-amine]"
5,100 to 1000,Cc1n[nH]c2ccnc(NCCc3ccccc3)c12 [Example 335]
6,< 100,"O=C(CCc1n[nH]c2ccnc(NC3CCCCC3)c12)N1CCC(c2ccncc2)C1 (stereo not shown) [Example 209, 3-(4-Cyclohexylamino-1H-pyrazolo[4,3-c]pyridin-3-yl)-1-(3-pyridin-4-yl-pyrrolidin-1-yl)-propan-1-one]"
7,100 to 1000,"Cc1n[nH]c2ccnc(-c3nccs3)c12 [Example 130, 3-Methyl-4-thiazol-2-yl-1H-pyrazolo[4,3-c]pyridine]"
8,100 to 1000,"c1cc2[nH]nc(-c3ccc(N4CCOCC4)nc3)c2c(NC2CCCCC2)n1 [Example 154, Cyclohexyl-[3-(6-morpholin-4-yl-pyridin-3-yl)-1H-pyrazolo[4,3-c]pyridin-4-yl]-amine]"
9,100 to 1000,"Cc1n[nH]c2ccnc(Nc3ccccc3F)c12 [Example 62, (2-Fluoro-phenyl)-(3-methyl-1H-pyrazolo[4,3-c]pyridin-4-yl)-amine]"
10,100 to 1000,"c1ccc(-c2n[nH]c3ccnc(NC4CCCCC4)c23)cc1 [Example 136, Cyclohexyl-(3-phenyl-1H-pyrazolo[4,3-c]pyridin-4-yl)-amine]"
11,< 100,"c1ccc(CCc2n[nH]c3ccnc(NC4CCCCC4)c23)nc1 [Example 214, Cyclohexyl-[3-(2-pyridin-2-yl-ethyl)-1H-pyrazolo[4,3-c]pyridin-4-yl]-amine]"
12,< 100,"CC1CCN(C(=O)c2ccc(CCc3n[nH]c4ccnc(NC5CCCCC5)c34)cc2)CC1 [Example 229, {4-[2-(4-Cyclohexylamino-1H-pyrazolo[4,3-c]pyridin-3-yl)-ethyl]-phenyl}-(4-methyl-piperidin-1-yl)-methanone]"
13,< 100,"O=C(CCc1n[nH]c2ccnc(NC3CCCCC3)c12)N1CCCC(F)(F)C1 [Example 191, 3-(4-Cyclohexylamino-1H-pyrazolo[4,3-c]pyridin-3-yl)-1-(3,3-difluoro-piperidin-1-yl)-propan-1-one]"
14,< 100,"CC1CN(C(=O)c2ccc(CCc3n[nH]c4ccnc(NC5CCCCC5)c34)cc2)CCN1C (stereo not shown) [Example 247, {4-[2-(4-Cyclohexylamino-1H-pyrazolo[4,3-c]pyridin-3-yl)-ethyl]-phenyl}-(3,4-dimethyl-piperazin-1-yl)-methanone]"
